Measured values: publication PMC12214830, “The human RIF1-Long isoform interacts with BRCA1 to promote recombinational fork repair under DNA replication stress” (Nature Communications, 2025)

Experiments:
[1] = test system: HCT116 cells; assay: colony formation (clonogenic survival) assay, HCT116 cells; assay type: cell-based, human; conditions: for colony survival, RIF1-L cells: HCT116 expressing only RIF1-L, versus RIF1-WT; for colony survival, RIF1-S cells: HCT116 expressing only RIF1-S, versus RIF1-KO
Description: For HCT116-derived cells, cells were plated in 6-well plates at 250 cells/well, in triplicate for each drug concentration. Cells were incubated with drugs for 24 h, after which drug-containing medium was replaced with drug-free medium. Seven days later colony counting was performed using a Nikon Eclipse TS100 microscope. For the IR sensitivity test, cells were plated following the same procedure, then irradiated at desired doses and incubated for 7 days before colony counting. Clusters with more than 20 cells were counted as colonies. Mean and standard error of each triplicate was calculated.

[2] = test system: RIF1-BRCA1 proximity in RPE-1 cells; assay: RIF1-BRCA1 proximity ligation assay, RPE-1 cells; assay type: cell-based, human
Description: (§1) Proximity ligation assays were performed using the Duolink In Situ PLA Fluorescence Protocol (Sigma-Aldrich, DUO92101) following the manufacturer’s instruction. Cells were grown on glass coverslips and treated as indicated for specific experiments. Cells were then permeabilized with 0.5% TritonX-100 in PBS for 10 min on ice, and fixed with 3% formaldehyde, 2% sucrose in PBS for 10 min at room temperature (RT). After fixation, coverslips were blocked in 3% BSA in PBS for 1 h at RT and incubated with primary antibodies (anti-RIF1, Bethel laboratories A300-568A, 1:1000 dilution; anti-BRCA1, Santa Cruz Biotechnologies, sc-6954, 1:200 dilution), for 1 h at RT in a humidity chamber. Primary antibodies were then washed off with PLA washing buffer A supplied in the Duolink In Situ PLA kit. Coverslips were next incubated sequentially with PLA Probes (1 h at 37 °C), ligation solution (30 min at 37 °C) and amplification solution (100 min at 37 °C), with washes by washing buffer A in between each step. At the end of incubation, coverslips were washed with washing buffer B supplied in the Duolink In Situ PLA kit. Coverslips were then mounted on glass slides with PLA Mounting medium with DAPI. Images were captured by fluorescence microscopy (Zeiss Axio Imager). PLA foci number in each nucleus were analysed by CellProfiler Software[74] with a custom-made pipeline.
For EdU labelling combined with proximity ligation assay, cells were labelled with 10 µM EdU for 15 min, washed free of EdU and next incubated with medium containing 4 mM HU medium for 4 h. Cells were then permeabilized, fixed and subjected to RIF1-BRCA1 PLA procedures. After all PLA steps, EdU detection was performed following manufacturer’s instructions in the Click-iT EdU Imaging Kit (Invitrogen, C10640).
(§2) For proximity ligation assays and immunofluorescence signal intensity measurements, when comparing between two samples, statistical significance of differences was calculated by Mann-Whitney test for non-parametric distributions using GraphPad Prism software (v.9). When comparing among three or more samples, p values were calculated by Kruskal-Wallis test for non-parametric distributions with Dunn’s multiple comparisons using GraphPad Prism software (v.9). For RIF1 foci formation analysis (Fig. 6B), p values were calculated by two-tailed Student’s t test. For nuclear BRCA1 intensity fold change analyses (Fig. 6C, D), p values were calculated by two-tailed one-sample t test using GraphPad Prism software (v.9). For RAD51 foci formation analyses (Fig. 7B, E and Supplementary Fig. 7B), p values were calculated by chi-square test. For HR Reporter assay analysis (Fig. 7G and Supplementary Fig. 7L), p values were calculated by two-tailed paired Student’s t test. For micronuclei frequency analysis (Fig. 7H), p values were calculated by one-tailed paired Student’s t test. All Student’s t tests were performed with Excel T.TEST function. Chi-square tests were performed with the online Chi-square test calculator at https://www.socscistatistics.com/tests/chisquare2/default2.aspx. Sample number n for all box-and-whisker plots and dot plots are listed in Supplementary Data 1.

[3] = test system: RIF1-BRCA1 proximity in HeLa cells; assay: RIF1-BRCA1 proximity ligation assay, HeLa cells; assay type: cell-based, human; conditions: HeLa +RIF1-L
Description: as §1, §2

[4] = test system: RIF1-L-pS2265 antibody; assay: ELISA, RIF1-L pS2265 antibody binding to exon 31 peptides; parameters: key: absorbance at 450 nm, blank-subtracted
Description: Two biotinylated peptides corresponding to exon 31 of human RIF1-L without phosphorylation (Biotin-(long chain)-[…]) and with phosphorylation at S2265 (Biotin-(long chain)-[…]-pS-[…]) were synthesised by Eurogentec Ltd (Southampton, Hampshire, UK). Two peptides were mixed in a variable ratio of 0–1% phosphorylated peptide/total peptide. The concentration of total peptide was kept constant at 250 nM in the ELISA wash buffer (1x TBS with 0.1% BSA and 0.05% Tween-20). The peptides were incubated within streptavidin-coated 96-well plates (Pierce Streptavidin Coated High Capacity Plates, Thermo Scientific, 15500) for 2 h at room temperature. After washing with ELISA wash buffer, the RIF1-L pS2265 phospho-antibody (1:2500 dilution) was added and incubated for 2 h at room temperature, followed by washing and incubation with HRP-conjugated secondary antibody (anti-rabbit; Bio-Rad #1706515, 1/10,000 dilution) for 1 h at room temperature. After washing, TMB substrate solution (1-Step Slow TMB-Elisa Substrate Solution, ThermoFisher, 34024) was added to develop the blue colour. 1 N HCl was then added to stop the reaction. Absorbance at 450 nm was measured. The average readings of the blank wells were subtracted. Mean and standard deviations of technical triplicates are shown.

[5] = test system: micronuclei; assay: micronuclei frequency, HeLa cells; assay type: cell-based, human; conditions: Fig.7H
Description: as §2

[6] = Fig S4I, ATMi (KU-60019) 2µM + HU 4mM 24hr
[7] = Fig S4J, DNA-PKi (NU-7441) 1µM + HU 4mM 24hr
[8] = HeLa RIF1 KO + GFP-RIF1 derivative cells, HU, experiment 07Jun2024
[9] = HeLa RIF1 KO + GFP-RIF1 derivative cells, unt, experiment 07Jun2024

For C[C@@]1(CO)[C@H](O)CC[C@@]2(C)[C@H]1CC[C@H]1C[C@@H]3C[C@@]12CC[C@]3(O)CO [APH, aphidicolin], the “colony survival, RIF1-L cells” value [1] was “RIF1-L conferred resistance comparable to RIF1-WT”, the “colony survival, RIF1-S cells” value [1] was “exhibited hypersensitivity to these drugs similar to RIF1-KO cells” and the “RIF1-BRCA1 PLA foci” value ([2]; APH 4 µM 24 h) was “also induced PLA foci”. The “RIF1-BRCA1 PLA foci per nucleus, mean” value ([2]; Fig 3C, APH 4 µM 24 h) was 1.540 and the “RIF1-BRCA1 PLA foci per nucleus, median” value ([2]; Fig 3C, APH 4 µM 24 h) was 1.
For CC[C@@]1(O)C(=O)OCc2c1cc1n(c2=O)Cc2cc3ccccc3nc2-1 [CPT, camptothecin], the “colony survival, RIF1-L cells” value [1] was “RIF1-L conferred resistance comparable to RIF1-WT”, the “colony survival, RIF1-S cells” value [1] was “exhibited hypersensitivity to these drugs similar to RIF1-KO cells” and the “RIF1-BRCA1 PLA foci” value ([2]; CPT 100 nM 24 h) was “also induced PLA foci”. The “RIF1-BRCA1 PLA foci per nucleus, mean” value ([2]; Fig 3C, CPT 100 nM 24 h) was 4.982 and the “RIF1-BRCA1 PLA foci per nucleus, median” value ([2]; Fig 3C, CPT 100 nM 24 h) was 4.
In the case of C[C@@H]1CN(CC(=O)Nc2ccc3c(c2)Cc2cccc(-c4cc(=O)cc(N5CCOCC5)o4)c2S3)C[C@H](C)O1 [KU-60019], the “RIF1-BRCA1 PLA foci per nucleus, mean” value [3, 6] is reported as 18.33, the “RIF1-BRCA1 PLA foci per nucleus, median” value [3, 6] is reported as 2, 17, 17 and the “RIF1-BRCA1 PLA” value ([3]; ATMi (KU-60019) 2 µM 24 h + HU 4 mM 24 h) is reported as “no apparent effect”.
With O=c1cc(N2CCOCC2)oc2c(-c3cccc4c3sc3ccccc34)cccc12 [NU-7441] the “RIF1-BRCA1 PLA” value ([2]; DNA-PKi (NU-7441) 1 µM 24 h + HU 4 mM 24 h) was “no apparent effect”, the “RIF1-BRCA1 PLA foci per nucleus, mean” value [2, 7] was 7.597 and the “RIF1-BRCA1 PLA foci per nucleus, median” value [2, 7] was 0, 5, 5.
With “Biotin-(long chain)-HNTTSAKGFLSPGSR-pS-PKFKSSKKCL [RIF1-L-phosphoS2265 peptide, biotinylated exon 31 peptide of human RIF1-L phosphorylated at S2265]” the “A450, Average” value ([4]; 0.00% phosphorylated/total peptide (250 nM total), mean of technical triplicates) was 0.009, the A450 ([4]; 0.00% phosphorylated/total peptide (250 nM total), replicate 1) was 0.01 and the A450 ([4]; 0.00% phosphorylated/total peptide (250 nM total), replicate 2) was 0.008. For the same molecule, the A450 ([4]; 0.00% phosphorylated/total peptide (250 nM total), replicate 3) was 0.01, the “A450, Average” value ([4]; 0.13% phosphorylated/total peptide (250 nM total), mean of technical triplicates) was 0.104 and the A450 ([4]; 0.13% phosphorylated/total peptide (250 nM total), replicate 1) was 0.106. The A450 ([4]; 0.13% phosphorylated/total peptide (250 nM total), replicate 2) was 0.104, the A450 ([4]; 0.13% phosphorylated/total peptide (250 nM total), replicate 3) was 0.103 and the “A450, Average” value ([4]; 0.25% phosphorylated/total peptide (250 nM total), mean of technical triplicates) was 0.166. The A450 ([4]; 0.25% phosphorylated/total peptide (250 nM total), replicate 1) was 0.16, the A450 ([4]; 0.25% phosphorylated/total peptide (250 nM total), replicate 2) was 0.169 and the A450 ([4]; 0.25% phosphorylated/total peptide (250 nM total), replicate 3) was 0.169. For the same molecule, the “A450, Average” value ([4]; 0.50% phosphorylated/total peptide (250 nM total), mean of technical triplicates) was 0.239, the A450 ([4]; 0.50% phosphorylated/total peptide (250 nM total), replicate 1) was 0.247 and the A450 ([4]; 0.50% phosphorylated/total peptide (250 nM total), replicate 2) was 0.216. For the same molecule, the A450 ([4]; 0.50% phosphorylated/total peptide (250 nM total), replicate 3) was 0.255, the “A450, Average” value ([4]; 1.00% phosphorylated/total peptide (250 nM total), mean of technical triplicates) was 0.346 and the A450 ([4]; 1.00% phosphorylated/total peptide (250 nM total), replicate 1) was 0.348. The A450 ([4]; 1.00% phosphorylated/total peptide (250 nM total), replicate 2) was 0.343, the A450 ([4]; 1.00% phosphorylated/total peptide (250 nM total), replicate 3) was 0.347 and the “A450, Average” value ([4]; Standard 0.13%, average of 3, right block) was 0.104. The A450 ([4]; Standard 0.13%, replicate 1, left block) was 0.155, the A450 ([4]; Standard 0.13%, replicate 1, right block (0.049 below left block)) was 0.106 and the A450 ([4]; Standard 0.13%, replicate 2, left block) was 0.153. The A450 ([4]; Standard 0.13%, replicate 2, right block (0.049 below left block)) was 0.104, the A450 ([4]; Standard 0.13%, replicate 3, left block) was 0.152 and the A450 ([4]; Standard 0.13%, replicate 3, right block (0.049 below left block)) was 0.103. For the same molecule, the “A450, Average” value ([4]; Standard 0.25%, average of 3, right block) was 0.166, the A450 ([4]; Standard 0.25%, replicate 1, left block) was 0.209 and the A450 ([4]; Standard 0.25%, replicate 1, right block (0.049 below left block)) was 0.16. It also gave an A450 ([4]; Standard 0.25%, replicate 2, left block) of 0.218, an A450 ([4]; Standard 0.25%, replicate 2, right block (0.049 below left block)) of 0.169 and an A450 ([4]; Standard 0.25%, replicate 3, left block) of 0.218. For the same molecule, the A450 ([4]; Standard 0.25%, replicate 3, right block (0.049 below left block)) was 0.169, the “A450, Average” value ([4]; Standard 0.50%, average of 3, right block) was 0.239 and the A450 ([4]; Standard 0.50%, replicate 1, left block) was 0.296. For the same molecule, the A450 ([4]; Standard 0.50%, replicate 1, right block (0.049 below left block)) was 0.247, the A450 ([4]; Standard 0.50%, replicate 2, left block) was 0.265 and the A450 ([4]; Standard 0.50%, replicate 2, right block (0.049 below left block)) was 0.216. For the same molecule, the A450 ([4]; Standard 0.50%, replicate 3, left block) was 0.304, the A450 ([4]; Standard 0.50%, replicate 3, right block (0.049 below left block)) was 0.255 and the “A450, Average” value ([4]; Standard 1.00%, average of 3, right block) was 0.346. For the same molecule, the A450 ([4]; Standard 1.00%, replicate 1, left block) was 0.397, the A450 ([4]; Standard 1.00%, replicate 1, right block (0.049 below left block)) was 0.348 and the A450 ([4]; Standard 1.00%, replicate 2, left block) was 0.392. The A450 ([4]; Standard 1.00%, replicate 2, right block (0.049 below left block)) was 0.343, the A450 ([4]; Standard 1.00%, replicate 3, left block) was 0.396 and the A450 ([4]; Standard 1.00%, replicate 3, right block (0.049 below left block)) was 0.347.
With Phleomycin the “colony growth after treatment, RIF1-L and RIF1-S cells” value ([1]; HCT116 expressing only RIF1-L or only RIF1-S) was “able to support colony growth”.
RIF1-L -APKF was tested, and the “Micronuclei per 100” value ([5]; HU, experiment 14Apr2024) was 14.2857, the “Micronuclei per 100” value [5, 8] was 12.35 and the “Micronuclei per 100” value [5, 9] was 6.03. The “Micronuclei per 100” value ([5]; unt, experiment 14Apr2024) was 4.214.
With RIF1-S the “Micronuclei per 100” value ([5]; HU, experiment 14Apr2024) was 12.4358, the “Micronuclei per 100” value [5, 8] was 12.93 and the “Micronuclei per 100” value [5, 9] was 6.41. For the same molecule, the “Micronuclei per 100” value ([5]; unt, experiment 14Apr2024) was 6.217.
